Test results taken from ChEMBL document CHEMBL1128808, “Dioxolane cytosine nucleosides as anti-hepatitis B agents” (Bioorg Med Chem Lett, 1995).

Legend:
Hepatoma cell line = test: Antiviral activity against hepatitis B virus in human hepatoma cell line (2.2.15 cells); format: functional, cell-based
CCRF-CEM [1] = test: Compound was evaluated for cytotoxicity by inhibition of mitochondrial DNA synthesis; format: functional, cell-based; conditions: Homo sapiens
CCRF-CEM [2] = test: Cytotoxicity in H1 CEM cells; format: functional, cell-based; conditions: Homo sapiens
[3] = Selectivity measured as the ratio between IC50 value and EC50 value; format: functional

Row | Compound | EC50 (Hepatoma cell line) | IC50 (CCRF-CEM [1]) | IC50 (CCRF-CEM [2]) | Selectivity [3]
1 | O=c1[nH]c(=O)n([C@H]2CO[C@@H](CO)O2)cc1Br | > 5 µM |  |  | 
2 | Nc1ccn([C@@H]2CO[C@@H](CO)O2)c(=O)n1 | 5 µM |  |  | 
3 | Nc1ccn([C@H]2CO[C@H](CO)O2)c(=O)n1 | > 5 µM | > 50 µM | > 50 µM | 
4 | O=c1[nH]c(=O)n([C@H]2CO[C@@H](CO)O2)cc1F | > 5 µM |  |  | 
5 | Nc1ccn([C@@H]2CO[C@H](CO)O2)c(=O)n1 [TROXACITABINE] | 0.0005 µM | > 1 µM | 0.056 µM | 
6 | Nc1ccn([C@@H]2CS[C@H](CO)O2)c(=O)n1 [LAMIVUDINE] | 0.01 µM | 50 µM | 50 µM | 
7 | Nc1ccn([C@H]2CO[C@@H](CO)O2)c(=O)n1 | 0.01 µM | > 10 µM | 2.4 µM | 240
8 | O=c1ccn([C@H]2CO[C@@H](CO)O2)c(=O)[nH]1 | > 20 µM |  |  | 
